Assay results as given in US20220323427A1, “SOMATOSTATIN RECEPTOR TYPE 5 AGONIST FOR THE TREATMENT OF HYPERINSULINISM” (Crinetics Pharmaceuticals, Inc., priority 2021, published 2022).

What was measured:
[1] = tested on: human pancreatic islets; experiment: Glucagon secretion in perifused human islets; type: cell-based; settings: islets from a healthy donor; G3+Arg
Description: For glucagon secretion, glucose (Boston BioProducts #BM-675) solutions, G3, G16.7 and G3 plus 20 mM arginine (Sigma #A8094; G3+Arg) were prepared in PB [24 mM NaHCO3 (Fisher Scientific #S233-500), 120 mM NaCl (Spectrum Chemical #S0155), 4.8 mM KCl (Fisher Scientific #P217-500), 2.5 mM CaCl2 (Fisher Scientific #C614-500), 1.2 mM MgCl2 (Sigma #M8266), 10 mM HEPES (Gibco #15630-080) and 0.1% BSA (EMD Millipore #12-675-100GM)]. Various concentrations of Compound 1 and diazoxide (Sigma #D9035) were prepared in G16.7 or in G3+Arg. On the day of the assay, ten perifusion chambers (Biorep #Peri-chamber) were loaded with a bead suspension (Biorep #Peri-beads-20) followed by 300 IEQ and another layer of bead suspension. Chambers were filled with PB, placed in the perifusion equipment and equilibrated with G3 for 74 min (flow rate=230 μL/min) followed by the perifusion steps for glucagon secretion shown in Table 3. […] Glucagon concentration was quantified using the commercially-available Mercodia Glucagon ELISA (Mercodia #10-1271-01) kit. undiluted perfusate samples were added to the supplied pre-coated assay plates. […] The optical density of each well was determined at 450 nm in a Tecan M1000Pro (Tecan, Switzerland) multiplate reader. Glucagon concentrations were calculated by regression to the standard curve using GraphPad Prism (GraphPad, San Diego, Calif.).

[2] = cited from earlier work
[3] = fasting conditions; cited from earlier work
[4] = tested on: glyburide-induced hyperinsulinemic hypoglycemia; experiment: Glyburide-induced hyperinsulinemic hypoglycemia model in rats; type: in vivo, Sprague Dawley rats; settings: 30 mg/kg oral, adult male rats; mean baseline 168 mg/dL
Description: Sulfonylurea drugs, such as glyburide, inhibit KATP channels and can be used in rat preclinical models to mimic the disease state of congenital HI patients with KATP channel mutations.
This model of glyburide-induced hyperinsulinemic hypoglycemia was used to assess the pharmacodynamic effects of Compound 1 after a single administration in male and female adult rats and male neonatal rats.
Glyburide was administered to raise insulin levels and induce hypoglycemia in adult male Sprague Dawley rats.
Two hours following glyburide administration, Compound 1 was given by oral gavage and blood glucose was monitored over 5 hours.

| Compound | Inhibition of arginine-stimulated glucagon secretion [1] | Patients treated and considered responsive who continue to have hypoglycemia ([2]; 2020 Congenital HI International Global Registry report) [%] | Patients who experienced pulmonary hypertension ([2]; one study) [%] | Side effect: fluid retention ([2]; patients) | Side effect: gastrointestinal side effects including feeding aversion ([2]; patients) | Side effect: severe hypertrichosis ([2]; patients) | half-life [3] | Blood glucose level after glyburide [4] [mg/dL] |
| --- | --- | --- | --- | --- | --- | --- | --- | --- |
| CC1=NS(=O)(=O)c2cc(Cl)ccc2N1 [diazoxide] | up to 57% | 30 | 4.8 | approximately 30% | approximately 12% | approximately 52% | – | – |
| COc1ccc(Cl)cc1C(=O)NCCc1ccc(S(=O)(=O)NC(=O)NC2CCCCC2)cc1 [glyburide, reference compound] | – | – | – | – | – | – | approximately 10 hours | 70 |
